# Test results reported in ChEMBL document CHEMBL6074678, “Selectively Antagonizing the NOD1-Mediated Inflammatory Signaling Pathway Mitigates the Gastric Inflammation Induced by Helicobacter pylori Infection” (J Med Chem, 2024).
# Columns and labels:
# [1] = molecular target: T1, Nucleotide-binding oligomerization domain-containing protein 1 (Homo sapiens, UniProt Q9Y239); test: Antagonist activity at human NOD1 expressed in HEK-Blue cells assessed as decrease in SEAP secretion incubated for 3 hrs followed by C12-iE-DAP stimulation for 20 hrs by spectrophotometry; type: cell-based, HEK-Blue hNOD1
# T1 sequence (Q9Y239 whole entry): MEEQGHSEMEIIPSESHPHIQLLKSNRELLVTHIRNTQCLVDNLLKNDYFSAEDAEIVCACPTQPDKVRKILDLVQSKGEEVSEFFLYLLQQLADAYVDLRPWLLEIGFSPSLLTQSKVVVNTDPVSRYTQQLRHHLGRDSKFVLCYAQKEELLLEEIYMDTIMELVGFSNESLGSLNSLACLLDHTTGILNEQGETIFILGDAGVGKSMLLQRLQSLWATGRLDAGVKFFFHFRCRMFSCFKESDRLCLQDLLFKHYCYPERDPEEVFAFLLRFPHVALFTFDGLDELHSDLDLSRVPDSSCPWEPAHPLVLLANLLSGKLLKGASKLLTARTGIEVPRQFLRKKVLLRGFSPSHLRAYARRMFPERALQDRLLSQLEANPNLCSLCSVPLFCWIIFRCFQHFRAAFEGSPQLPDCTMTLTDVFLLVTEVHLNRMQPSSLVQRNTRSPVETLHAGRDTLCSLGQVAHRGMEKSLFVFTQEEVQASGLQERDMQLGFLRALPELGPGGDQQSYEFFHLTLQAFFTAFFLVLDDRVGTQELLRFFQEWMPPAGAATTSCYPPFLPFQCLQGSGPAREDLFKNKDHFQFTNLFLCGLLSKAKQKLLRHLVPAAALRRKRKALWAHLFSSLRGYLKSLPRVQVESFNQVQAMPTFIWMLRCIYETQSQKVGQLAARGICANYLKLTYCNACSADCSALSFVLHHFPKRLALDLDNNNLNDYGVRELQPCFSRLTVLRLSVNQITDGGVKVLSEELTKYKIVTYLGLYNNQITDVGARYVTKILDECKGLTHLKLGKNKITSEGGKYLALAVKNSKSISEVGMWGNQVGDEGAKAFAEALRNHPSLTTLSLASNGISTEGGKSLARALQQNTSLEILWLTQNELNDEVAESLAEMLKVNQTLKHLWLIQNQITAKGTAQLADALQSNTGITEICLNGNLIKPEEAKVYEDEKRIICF
# [2] = molecular target: T2, Nucleotide-binding oligomerization domain-containing protein 1 (Mus musculus) (UniProt Q8BHB0); test: Antagonist activity at mouse NOD1 expressed in HEK-Blue cells assessed as decrease in SEAP secretion at 5 uM incubated for 3 hrs followed by C12-iE-DAP stimulation for 20 hrs by spectrophotometry relative to control; type: cell-based; settings: HEK-Blue mNOD1, filed as antagonist, time 23.0 hrs
# T2 sequence (whole entry): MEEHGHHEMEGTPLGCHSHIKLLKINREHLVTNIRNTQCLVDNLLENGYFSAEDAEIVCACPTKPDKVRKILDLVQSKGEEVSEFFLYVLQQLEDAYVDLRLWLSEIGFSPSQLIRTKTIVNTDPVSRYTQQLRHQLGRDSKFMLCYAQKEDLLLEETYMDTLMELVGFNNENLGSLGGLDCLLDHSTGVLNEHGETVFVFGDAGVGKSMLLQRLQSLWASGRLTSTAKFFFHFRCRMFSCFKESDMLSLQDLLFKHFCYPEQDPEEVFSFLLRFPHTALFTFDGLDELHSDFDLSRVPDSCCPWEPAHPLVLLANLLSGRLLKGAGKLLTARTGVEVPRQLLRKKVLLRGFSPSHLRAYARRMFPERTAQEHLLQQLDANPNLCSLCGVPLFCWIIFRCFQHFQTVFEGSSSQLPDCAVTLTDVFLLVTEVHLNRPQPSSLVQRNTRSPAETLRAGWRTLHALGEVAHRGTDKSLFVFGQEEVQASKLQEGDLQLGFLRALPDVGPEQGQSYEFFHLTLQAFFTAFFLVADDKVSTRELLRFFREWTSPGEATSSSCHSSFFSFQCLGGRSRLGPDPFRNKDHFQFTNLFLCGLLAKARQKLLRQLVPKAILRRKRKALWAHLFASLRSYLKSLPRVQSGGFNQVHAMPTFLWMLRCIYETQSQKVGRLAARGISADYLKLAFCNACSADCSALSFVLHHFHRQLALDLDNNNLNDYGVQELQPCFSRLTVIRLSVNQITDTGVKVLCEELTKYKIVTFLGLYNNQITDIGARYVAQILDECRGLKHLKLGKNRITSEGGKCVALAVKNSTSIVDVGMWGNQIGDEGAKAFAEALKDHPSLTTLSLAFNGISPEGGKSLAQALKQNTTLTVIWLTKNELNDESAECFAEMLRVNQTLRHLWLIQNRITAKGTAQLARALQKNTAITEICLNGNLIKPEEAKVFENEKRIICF
# [3] = molecular target: T3, Nucleotide-binding oligomerization domain-containing protein 1 (Mus musculus, UniProt Q8BHB0); test: Antagonist activity at mouse NOD1 expressed in HEK-Blue cells assessed as decrease in SEAP secretion incubated for 3 hrs followed by C12-iE-DAP stimulation for 20 hrs by spectrophotometry; type: cell-based, HEK-Blue mNOD1
# T3 sequence (Q8BHB0 whole entry): T2 sequence (whole entry)
# [4] = molecular target: T2, Nucleotide-binding oligomerization domain-containing protein 1 (Mus musculus); test: Antagonist activity at mouse NOD1 expressed in HEK-Blue cells assessed as decrease in SEAP secretion at 1 uM incubated for 3 hrs followed by C12-iE-DAP stimulation for 20 hrs by spectrophotometry relative to control; type: cell-based; settings: HEK-Blue mNOD1, filed as antagonist, time 23.0 hrs
# [5] = Metabolic stability in mouse liver microsomes assessed as half life at 1.25 uM preincubated for 5 mins followed by NADPH addition measured upto 120 mins by LC-MS/MS analysis; type: ADME, Microsome; settings: time < 125 min
# [6] = Solubility of compound in phosphate buffer at pH 7.2 to 7.4; type: physicochemical
# [7] = molecular target: T4, Nucleotide-binding oligomerization domain-containing protein 2 (Homo sapiens, UniProt Q9HC29); test: Antagonist activity at human NOD2 expressed in HEK293 cells assessed as decrease in MDP-stimulated IL-8 release incubated for 24 hrs by fluorescence based assay; type: cell-based
# T4 sequence (Q9HC29 whole entry, the tested form may be a part): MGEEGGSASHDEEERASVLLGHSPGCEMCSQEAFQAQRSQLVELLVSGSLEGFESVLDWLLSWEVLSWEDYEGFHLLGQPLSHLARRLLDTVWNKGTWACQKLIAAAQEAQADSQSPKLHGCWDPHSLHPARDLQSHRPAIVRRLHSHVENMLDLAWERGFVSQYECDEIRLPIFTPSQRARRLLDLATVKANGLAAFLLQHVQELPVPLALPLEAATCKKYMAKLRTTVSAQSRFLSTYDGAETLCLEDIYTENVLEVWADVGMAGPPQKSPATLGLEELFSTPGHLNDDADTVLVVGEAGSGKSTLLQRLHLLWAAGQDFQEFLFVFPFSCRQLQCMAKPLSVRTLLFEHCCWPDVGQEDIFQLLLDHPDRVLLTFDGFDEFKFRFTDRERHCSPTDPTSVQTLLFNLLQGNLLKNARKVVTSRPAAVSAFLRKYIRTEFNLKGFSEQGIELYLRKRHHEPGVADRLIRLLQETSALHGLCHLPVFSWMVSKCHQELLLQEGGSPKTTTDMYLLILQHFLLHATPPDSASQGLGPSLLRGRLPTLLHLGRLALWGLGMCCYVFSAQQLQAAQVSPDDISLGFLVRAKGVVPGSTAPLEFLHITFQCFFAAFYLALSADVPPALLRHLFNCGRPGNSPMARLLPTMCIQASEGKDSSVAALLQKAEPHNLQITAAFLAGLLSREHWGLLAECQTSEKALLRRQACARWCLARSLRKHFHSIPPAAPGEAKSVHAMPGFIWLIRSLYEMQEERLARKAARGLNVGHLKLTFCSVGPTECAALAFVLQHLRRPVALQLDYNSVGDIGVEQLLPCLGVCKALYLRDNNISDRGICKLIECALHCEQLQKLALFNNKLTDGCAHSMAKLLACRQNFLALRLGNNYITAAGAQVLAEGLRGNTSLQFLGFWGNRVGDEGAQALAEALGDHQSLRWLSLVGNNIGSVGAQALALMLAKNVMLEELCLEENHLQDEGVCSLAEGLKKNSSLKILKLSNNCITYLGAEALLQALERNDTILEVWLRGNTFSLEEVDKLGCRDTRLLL
# [8] = molecular target: T4, Nucleotide-binding oligomerization domain-containing protein 2; test: Inhibition of human NOD2 at 1 uM relative to control
# [9] = molecular target: T5, Nucleotide-binding oligomerization domain-containing protein 2 (Mus musculus) (UniProt Q8K3Z0); test: Inhibition of mouse NOD2 at 1 uM relative to control
# T5 sequence (whole entry): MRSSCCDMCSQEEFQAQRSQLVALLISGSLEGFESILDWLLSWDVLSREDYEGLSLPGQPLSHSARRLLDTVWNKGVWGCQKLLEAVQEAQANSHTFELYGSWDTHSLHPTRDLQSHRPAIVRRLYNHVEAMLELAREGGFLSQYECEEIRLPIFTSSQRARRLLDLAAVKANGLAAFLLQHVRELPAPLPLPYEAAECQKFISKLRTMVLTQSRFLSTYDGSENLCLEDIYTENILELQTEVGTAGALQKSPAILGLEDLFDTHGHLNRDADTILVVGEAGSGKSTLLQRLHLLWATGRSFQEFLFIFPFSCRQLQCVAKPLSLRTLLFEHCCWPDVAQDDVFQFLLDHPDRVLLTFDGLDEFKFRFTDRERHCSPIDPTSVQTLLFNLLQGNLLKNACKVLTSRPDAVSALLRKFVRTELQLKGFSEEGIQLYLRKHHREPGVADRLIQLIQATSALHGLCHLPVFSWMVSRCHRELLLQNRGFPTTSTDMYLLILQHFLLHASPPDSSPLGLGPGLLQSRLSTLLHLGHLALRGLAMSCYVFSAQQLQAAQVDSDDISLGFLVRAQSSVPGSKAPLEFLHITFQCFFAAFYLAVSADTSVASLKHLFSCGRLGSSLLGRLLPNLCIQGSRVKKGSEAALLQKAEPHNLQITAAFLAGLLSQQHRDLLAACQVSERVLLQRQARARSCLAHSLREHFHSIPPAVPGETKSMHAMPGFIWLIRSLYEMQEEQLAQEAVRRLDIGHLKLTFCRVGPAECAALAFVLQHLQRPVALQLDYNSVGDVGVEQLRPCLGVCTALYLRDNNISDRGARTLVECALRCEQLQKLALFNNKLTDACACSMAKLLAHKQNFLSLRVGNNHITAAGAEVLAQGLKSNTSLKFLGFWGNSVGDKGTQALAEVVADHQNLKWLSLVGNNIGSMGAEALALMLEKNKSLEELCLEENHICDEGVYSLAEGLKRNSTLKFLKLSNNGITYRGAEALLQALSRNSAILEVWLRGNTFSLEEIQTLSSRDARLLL
# [10] = molecular target: Receptor-interacting serine/threonine-protein kinase 2 (Homo sapiens) (UniProt O43353); test: Inhibition of RIP2 (unknown origin) at 10 uM relative to control
# Chain of Receptor-interacting serine/threonine-protein kinase 2 (Homo sapiens) (O43353 whole entry): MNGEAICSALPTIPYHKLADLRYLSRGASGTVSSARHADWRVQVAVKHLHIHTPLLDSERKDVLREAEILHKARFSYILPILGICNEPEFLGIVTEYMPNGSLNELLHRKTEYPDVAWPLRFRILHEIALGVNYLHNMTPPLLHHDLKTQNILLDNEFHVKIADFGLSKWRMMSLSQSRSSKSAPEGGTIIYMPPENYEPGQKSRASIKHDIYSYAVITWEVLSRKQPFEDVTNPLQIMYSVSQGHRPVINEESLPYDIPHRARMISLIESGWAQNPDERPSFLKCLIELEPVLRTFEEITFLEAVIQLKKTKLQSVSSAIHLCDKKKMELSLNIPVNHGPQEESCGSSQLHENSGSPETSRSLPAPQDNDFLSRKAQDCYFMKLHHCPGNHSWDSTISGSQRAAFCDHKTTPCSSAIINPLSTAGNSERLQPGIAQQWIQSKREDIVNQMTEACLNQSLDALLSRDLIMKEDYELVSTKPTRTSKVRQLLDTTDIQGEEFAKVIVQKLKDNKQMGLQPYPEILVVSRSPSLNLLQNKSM
# [11] = molecular target: Toll-like receptor 4 (Homo sapiens) (UniProt O00206); test: Inhibition of human TLR4 at 1 uM relative to control
# Chain of Toll-like receptor 4 (Homo sapiens) (O00206 whole entry): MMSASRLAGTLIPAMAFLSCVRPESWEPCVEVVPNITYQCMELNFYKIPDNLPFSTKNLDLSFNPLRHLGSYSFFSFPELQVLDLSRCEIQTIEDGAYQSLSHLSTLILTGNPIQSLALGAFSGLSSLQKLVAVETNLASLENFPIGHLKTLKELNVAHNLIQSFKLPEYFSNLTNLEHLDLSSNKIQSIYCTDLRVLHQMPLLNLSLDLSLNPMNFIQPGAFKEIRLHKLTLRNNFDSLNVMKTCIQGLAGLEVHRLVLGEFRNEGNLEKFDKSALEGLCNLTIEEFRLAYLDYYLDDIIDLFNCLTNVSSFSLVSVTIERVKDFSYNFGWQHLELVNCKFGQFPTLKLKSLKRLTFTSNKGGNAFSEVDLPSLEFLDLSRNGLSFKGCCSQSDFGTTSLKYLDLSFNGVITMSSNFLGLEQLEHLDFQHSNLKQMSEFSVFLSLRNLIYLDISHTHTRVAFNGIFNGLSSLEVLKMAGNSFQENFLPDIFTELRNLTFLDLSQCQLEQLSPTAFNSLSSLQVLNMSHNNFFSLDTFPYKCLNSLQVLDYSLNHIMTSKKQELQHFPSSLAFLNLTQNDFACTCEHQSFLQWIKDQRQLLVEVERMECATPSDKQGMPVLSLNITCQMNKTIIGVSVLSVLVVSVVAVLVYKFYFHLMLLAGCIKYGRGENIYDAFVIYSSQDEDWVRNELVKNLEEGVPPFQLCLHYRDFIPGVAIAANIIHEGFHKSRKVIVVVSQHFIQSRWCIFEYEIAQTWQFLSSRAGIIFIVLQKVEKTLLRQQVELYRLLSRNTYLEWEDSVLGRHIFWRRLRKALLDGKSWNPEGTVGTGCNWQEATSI
# [12] = Metabolic stability in human liver microsomes assessed as half life at 1.25 uM preincubated for 5 mins followed by NADPH addition measured upto 120 mins by LC-MS/MS analysis; type: ADME, Microsome; settings: time < 125 min
# [13] = Metabolic stability in human liver microsomes assessed as intrinsic clearance at 1.25 uM preincubated for 5 mins followed by NADPH addition measured upto 120 mins by LC-MS/MS analysis; type: ADME, Microsome; settings: time < 125 min, read-out: CLH
# [14] = Metabolic stability in human liver microsomes assessed as hepatic clearance at 1.25 uM preincubated for 5 mins followed by NADPH addition measured upto 120 mins by LC-MS/MS analysis; type: ADME, Microsome; settings: time < 125 min
# [15] = Metabolic stability in mouse liver microsomes assessed as intrinsic clearance at 1.25 uM preincubated for 5 mins followed by NADPH addition measured upto 120 mins by LC-MS/MS analysis; type: ADME, Microsome; settings: time < 125 min, read-out: CLH
# [16] = Metabolic stability in mouse liver microsomes assessed as hepatic clearance at 1.25 uM preincubated for 5 mins followed by NADPH addition measured upto 120 mins by LC-MS/MS analysis; type: ADME, Microsome; settings: time < 125 min
# [17] = Metabolic stability in mouse hepatocytes assessed as intrinsic clearance measured per million cells at 10 uM measured after 120 mins by LC-MS analysis; type: ADME, cell-based, Hepatocyte; settings: 2 h
# [18] = Metabolic stability in mouse hepatocytes assessed as half life at 10 uM measured after 120 mins by LC-MS analysis; type: ADME, cell-based, Hepatocyte
# [19] = Metabolic stability in human hepatocytes assessed as hepatic clearance at 10 uM measured after 120 mins by LC-MS analysis; type: ADME, cell-based, Hepatocyte
# [20] = Metabolic stability in human hepatocytes assessed as half life at 10 uM measured after 120 mins by LC-MS analysis; type: ADME, cell-based, Hepatocyte
# [21] = Metabolic stability in human hepatocytes assessed as intrinsic clearance measured per million cells at 10 uM measured after 120 mins by LC-MS analysis; type: ADME, cell-based, Hepatocyte; settings: read-out: CLH
SMILES,IC50 [1] [nM],inhibition [2] [%],IC50 [3] [nM],inhibition [4] [%],half-life at 1.25 µM [5] [min],half-life at 1.25 µM [12] [min],microsomal CLint at 1.25 µM [13] [µL/min/mg],CLhep predicted at 1.25 µM [14] [mL/min/kg],microsomal CLint at 1.25 µM [15] [µL/min/mg],CLhep predicted at 1.25 µM [16] [mL/min/kg],other results
O=c1c2cc(Cl)ccc2nc(Cl)n1-c1ccc(Cl)c(NS(=O)(=O)c2ccccc2F)c1,40,67.4,2630,42.7,–,–,–,–,–,–,–
CS(=O)(=O)c1ccc2nc(Cl)n(-c3ccc(Cl)c(NS(=O)(=O)c4ccccc4C#N)c3)c(=O)c2c1,–,–,66,–,20.6,–,–,–,–,–,solubility [6]: 34.2 µg/mL
Cc1nc2ccc(Cl)cc2c(=O)n1-c1ccc(Cl)c(NS(=O)(=O)c2ccccc2F)c1,–,49.4,6920,–,–,–,–,–,–,–,IC50 [7]: > 20000 nM; inhibition [8]: < 10%
O=c1c2ccncc2nc(Cl)n1-c1ccc(Cl)c(NS(=O)(=O)c2c(F)cccc2F)c1,5.2,–,77,83.7,–,–,–,–,–,–,inhibition [9]: < 10%; inhibition [8]: < 10%; inhibition [10]: < 10%; inhibition [11]: < 10%; solubility [6]: 5.7 µg/mL
O=c1c2nc(Cl)ccc2nc(Cl)n1-c1ccc(Cl)c(NS(=O)(=O)c2ccccc2F)c1,11,–,193,84.6,39.1,104,13.4,8.9,35.4,54.7,–
O=c1c2ccncc2nc(Cl)n1-c1ccc(Cl)c(NS(=O)(=O)c2ccccc2F)c1,4.1,–,344,83.9,> 186,> 186,< 7.4,< 6.1,< 7.4,< 22.1,CLH [17]: 307.2 µL/min; half-life at 10 µM [18]: 2.3 min; CLhep predicted at 10 µM [19]: 18.6 mL/min/kg; half-life at 10 µM [20]: 11.6 min; hepatocyte CLint at 10 µM [21]: 59.5 µL/min/1e6 cells
O=c1c2cc(Cl)cnc2nc(Cl)n1-c1ccc(Cl)c(NS(=O)(=O)c2ccccc2F)c1,–,–,187,84.3,13.9,28,49.4,15.2,99.9,73.2,–
O=c1c2cc(Cl)ncc2nc(Cl)n1-c1ccc(Cl)c(NS(=O)(=O)c2ccccc2F)c1,1.8,–,118,85.6,53,115,12,8.3,26.2,48,–
C=CC(=O)Nc1nc2ccc(Cl)cc2c(=O)n1-c1ccc(Cl)c(NS(=O)(=O)c2ccccc2F)c1,27,53.3,7210,–,–,–,–,–,–,–,–
Cc1nc2ccc(NC(=O)c3cccc(NS(=O)(=O)c4ccc(F)cc4)c3)cc2s1,–,–,–,–,–,–,–,–,–,–,IC50 [7]: > 50000 nM
